Assay results taken from patent US20240238274A1, “INHIBITORS OF UBIQUITIN SPECIFIC PEPTIDASE 22 (USP22) AND USES THEREOF FOR TREATING DISEASE AND DISORDERS” (Northwestern University, priority 2021, published 2024).

How the values were obtained:
[1] = system: USP mRNA level in nTreg and iTreg cells; test: In vitro inhibitor assays, USP mRNA level in Treg cells; type: cell-based; conditions: 24 hours
Protocol: FIG. 3: Usp22 and Usp21 are required for FOXP3 stability in nTreg cells under environmental and metabolic stress found in the TME. All mRNA values calculated relative to unchallenged WT Treg cells. A, nTreg USP mRNA level in normoxic (21% O2) verses hypoxic (1% O2) conditions after 24 hours (n=6-13). B, FOXP3 MFI change in 22KO nTreg cells relative to WT nTreg cells after 72 hours in normoxic (21% O2) verses hypoxic (1% O2) conditions (n=5). C, nTreg USP mRNA level after treatment with dMOG for 24 hours (n=6). D, USP mRNA level in nTreg cells after exposure to glucose-restricted (0.5 mM) conditions after 24 hours relative to normal media (11 mM glucose) (n=7-18). E, Relative FOXP3 MFI change in nTreg cells from control and cells cultured under low glucose conditions after 48 hours (n=3). F, nTreg USP mRNA level under amino acid starvation for 24 hours (n=5-9). […]
Along with the competition for glucose, a scarcity of amino acids within tumors may also alter immune cell function (35). […] So, we treated Treg cells with an inhibitor of mitochondrial ATP synthase, Oligomycin A, and measured USP mRNA levels.
All nTreg and iTreg cells were plated as described above DMOG (Sigma Catalog #D3695) was administered to the cells in relevant experiments at 1 mM for 24 hours. […] FOXP3 protein level was assessed via flow cytometry following 48 hours of treatment of inhibitors described above. […]

[2] = system: Usp22 and Usp21 expression in iTreg cells; test: In vitro iTreg cell TGF-β assay, USP mRNA level; type: cell-based; conditions: TGF-β added, inhibitor 25 μg/mL
Text: FIG. 8: TGF-β induces expression of Usp22 and Usp21 in Treg cells. A, Visual representation of Tumor Conditioned Media (TCM) experiments. B, iTreg USP mRNA level under TGF-β induction post-polarization. Usp22: n=18-19; Usp21: n=7-8; Usp7: 4-5. C, iTreg USP mRNA level under TGF-β with and without a TGF-β inhibitor. Usp22: n=3-11; Usp21: n=8-18; Usp7: 3-8. D, Treg FoxP3 mRNA level with TGF-β induction (n=10). B-D, All mRNA values calculated relative to WT untreated iTreg cells. E, TGF-β level in B16, LLC1 and EG7 tumor conditioned media (n=3). F-H, Correlation between USP induction and TGF-β level in the tumor conditioned media. Usp22: n=3-10; Usp21: n=3-8; Usp7: n=3-6. I, TGF-β mRNA level of control or TGF-β shRNA treated B16 cells (n=3). J, mRNA level of Usp22 in sorted itTreg cells from mice injected with shRNA treated B 16 cells (n=4). B, D, and I, Two-tailed unpaired t-test was performed to determine statistical significance. C and E Ordinary one-way Anova with multiple comparisons between groups was performed to determine statistical significance. All data are presented as mean±stdev. NS, not significant. *P<0.05, **P<0.01, ***P<0.001, ****P<0.0001.
Many types of tumors secrete large amounts of TGF-β, which dampens immune responses and promotes metastasis (21, 22). […]

SMILES: COC(=O)CNC(=O)C(=O)OC [dMOG, dimethyloxalylglycine]
- Usp22 mRNA level ([1]; nTreg and iTreg cells, 1 mM): increased Usp22 mRNA level

SMILES: CC(C)(O)c1cc(Nc2cc(Oc3cn(C4CC4)nc3C3CCOCC3)ccn2)ccn1 [LY 3200882]
- TGF-β-induced increase of Usp22 and Usp21 expression [2]: largely diminished

SMILES: CC[C@H]1/C=C/C=C/C[C@@H](C)[C@H](O)[C@@](C)(O)C(=O)[C@@H](C)[C@H](O)[C@@H](C)C(=O)[C@@H](C)[C@H](O)[C@@H](C)/C=C/C(=O)O[C@@H]2[C@H](C)[C@H](CC1)O[C@]1(CC[C@H](C)[C@H](C[C@@H](C)O)O1)[C@H]2C [Oligomycin A]
- USP mRNA level ([1]; nTreg cells, 1 μM): increased both Usp22 and Usp21, but not Usp7
